Measured values taken from ChEMBL document CHEMBL1133398, “Mechanism-based inactivation of thymidylate synthase by 5-(3-fluoropropyn-1-yl)-2'-deoxyuridine 5'-phosphate” (Bioorg Med Chem Lett, 2000).

Key:
[1] = Half life was determined; assay type: ADME; details: rat
[2] = target: T1, Thymidylate synthase (Lactobacillus casei, UniProt P00469); assay: The compound was evaluated for the binding affinity against Lactobacillus casei dTMP synthase using spectrophotometric assay; set-up: species or system Lacticaseibacillus casei
T1 sequence (P00469 whole entry): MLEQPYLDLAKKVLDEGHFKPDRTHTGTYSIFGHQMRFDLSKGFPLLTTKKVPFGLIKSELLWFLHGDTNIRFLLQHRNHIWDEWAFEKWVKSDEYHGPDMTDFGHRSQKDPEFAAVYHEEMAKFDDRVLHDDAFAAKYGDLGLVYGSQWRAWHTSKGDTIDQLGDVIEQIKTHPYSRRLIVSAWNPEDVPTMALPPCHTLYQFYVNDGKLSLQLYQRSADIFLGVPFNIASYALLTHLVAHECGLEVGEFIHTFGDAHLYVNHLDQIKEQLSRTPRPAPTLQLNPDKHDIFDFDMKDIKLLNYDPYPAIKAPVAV

O=c1[nH]c(=O)n([C@H]2C[C@H](O)[C@@H](COP(=O)(O)O)O2)cc1C#CCF
half-life [1]: < 1 min | Ki [2]: 0.0148 µM
